Measured values published in PMC4150255 (Journal of medicinal chemistry, 2012).

Tested on: LNCaP C-81 cells
Assay: cell proliferation assay
Format: cell-based, Human
Details: regular culture medium, 3 days treatment

| SMILES | inhibition of proliferation |
| --- | --- |
| O=C(NN=C1C=CC(=NOS(=O)(=O)c2ccccc2)C=C1)c1cc2ccccc2cc1O [Compound A9] | up to 70% |
| O=C(c1ccc(O)c(NC(=O)c2cccc3ccccc23)c1)c1ccc(O)c(NC(=O)c2cccc3ccccc23)c1 [Compound A36] | about 32% |
